Assay results as given in patent publication US10273313B2, “Multimeric mannosides, a process for preparing the same and their uses as a drug” (CENTRE NATIONAL DE LA RECHERCHE SCIENTIFIQUE, priority 2012, dated 2019).
Values after ≈ are worked out from the molar mass of the structure shown. Where two headings read alike, the source gives them in different places.

Experiments:
[1] = molecular target: T1, monovalent lectin domain of FimH (Escherichia coli, UniProt P08191); format: binding; details: for Kd / Molar ratio n meas / ΔG° / ΔH° / ΔS°: direct titration; for Kd: read-out: Kd
T1 construct: with the monovalent lectin domain of FimH were measured using isothermal calorimetry (ITC)
T1 sequence (P08191 22-179): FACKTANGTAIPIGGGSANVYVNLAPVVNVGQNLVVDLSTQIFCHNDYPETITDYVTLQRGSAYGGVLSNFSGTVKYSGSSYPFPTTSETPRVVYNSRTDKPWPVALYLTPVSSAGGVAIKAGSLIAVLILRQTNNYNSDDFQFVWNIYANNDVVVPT

bladder cell line 5637 = assay: Anti-adhesives for bacterial bladder cell binding; format: cell-based; details: ten-fold dilution series
Protocol: The anti-adhesive capacities of the HM-derivatized cyclodextrins 1-4 were tested in vitro on the bladder cell line 5637, in a procedure analogous as previously described (Wellens, A. et al., PLoS ONE 3: e2040 (2008)). The CD conjugates 1-4 were diluted in a ten-fold series. The minimum inhibitory concentrations (MIC) indicate the concentrations of sugars at which we see some inhibition of binding of FimH to the bladder cells, they do however not indicate complete inhibition. MIC values for the CD-conjugates 1-4 followed a similar trend as the inhibitory concentrations recorded in HIA.
The anti-adhesive capacities of the n-heptyl α-D-mannoside-derivatized cyclodextrins 1-4 were tested in vitro on the bladder cell line 5637, in a procedure analogous to as described in (Wellens, A. et al., PLoS ONE 3: e2040 (2008)). The ligands have been diluted 10-fold and this is also the resolution limit of these tests.

[2] = tested on: E. coli strain UTI89 in the bladder of C3H/HeN mice; assay: In vivo inhibition in the murine cystitis model (instillation with UTI89)
Protocol: In vivo inhibition was evaluated by instilling 1-4 together with the UTI89 strain via a catheter in the bladder of C3H/HeN mice. […] A group of ten animals was used for each concentration of antagonists. […] The animals were sacrificed at a 6 h post infection time.
A murine model of urinary tract infection was used to test the ability of the compounds to inhibit the colonization of UTI89 in the bladder [Hung C. S.; Dodson, K. W., Hultgren S. J. Nat. Protoc. 2009, 4, 1230-1243 and Wellens A.; Garofalo C.; Nguyen H.; Van Gerven N.; Slättegård R.; Hernalsteens, J.-P.; Wyns, L.; Oscarson, S.; De Greve H.; Hultgren S. J.; Bouckaert, J. PLoS ONE 2008, 3, e2040]. The solution with high concentration of compounds was added to the resuspension of UTI89 before given to the mice. The eight-week old Female C3H/HeN mice (Harlan, Horst, The Netherlands) were anesthetized and infected via transurethral catheterization of 10^7 CFU UTI89 in solution in PBS, or in PBS with the compound in the mentioned concentration. The mice were sacrificed at 24 hours post infection and the bladders were harvested, homogenized and resuspended in PBS. The serial dilutions were spot on LB medium agar plates. The bacterial load was determined by counting the CFU recovered from the bladder. The animal experiments were approved by the Ethical Committer for Animal Experiments of Vrije Universiteit Brussel and complied with all relevant national legislation and institutional policies. The Mann-Whitney test was applied for the comparison of the data obtained from the untreated group and inhibition group in GraphPad Prism version 5.1 and two tailed P value were shown (GraphPad software).
A limited number of papers described the in vivo efficiency of anti-adhesive mannosides to treat UTIs.

[3] = tested on: AIEC LF82 strain adhesion to T84 intestinal epithelial cells; assay: Adhesion assay on T84 cells, cells incubated 1 h with mannoside prior infection (Example 21.1); format: cell-based, Escherichia coli
Protocol: (§1) E. coli strain LF82 was isolated from a chronic ileal lesion of a patient with Crohn's disease (CD). Bacteria were grown routinely in Luria-Bertani (LB) broth overnight at 37° C. Intestinal epithelial cells T84 derived from colonic adenocarcinoma were maintained in an atmosphere containing 5% CO2 at 37° C. in DMEM/F12 (50/50) medium supplemented with 10% (v/v) heat-inactivated fetal calf serum (FCS), 1% L-glutamine, 100 000 U·l^−1 penicillin, 100 mg·l^−1 streptomycin, 25 μg·l^−1 amphotericin B.
T84 cells were seeded in 48-well tissue culture plates with 1.5×10^5 cells per well and grown for 48 h. Cells were incubated 1 h prior infection with each mannoside at a final concentration of 100; 10; 1 or 0.1 μM in complete medium without antibiotics, containing heat inactivated fetal calf serum (FCS) and were next infected with AIEC LF82 strain at a multiplicity of infection (MOI) of 10 bacteria per cell. After a 3 h incubation period at 37° C., the monolayers were washed in phosphate-buffered saline (PBS; pH 7.2). The epithelial cells were then lysed with 1% Triton X-100 in deionized water. Samples were diluted and plated onto Luria Bertani agar plates to determine the number of cfu recovered from the lysed monolayers.
Results were expressed in percentage of residual adhesion, considering adhesion level of AIEC LF82 without mannoside treatment as 100%.

[4] = tested on: type-1 piliated clinical E. coli isolate UTI89; assay: Haemagglutination inhibition assay (HIA), guinea pig erythrocytes; format: cell-based, Escherichia coli; details: read-out: Minimal inhibitory concentration (MIC) on haemagglutination
Protocol: Haemagglutination is observed as the red blood cells being held in suspension through the formation of a space-filling cross-linked network with the fimbriated bacteria.
The UIT89 clinical isolate was grown statically 37° C. for 48 hours in LB medium and analysed for haemagglutination of guinea pig red blood cells. Both bacteria and red blood cells (RBCs) were washed 3 times in ice-cold PBS (17 mM K/NaH2PO4, 150 mM NaCl). PBS was used for all dilutions. 96-well round-bottom microtiter plates were used for the dilutions. The titer for agglutination was determined in a 2-fold dilution series in PBS of the bacteria in a volume of 25 μL. Well 1 is a negative control without bacteria but 25 μL PBS. 25 μL PBS and 50 μL 5% RBCs were added to a final 100 μL volume. Upon 1 hour at 4° C., the titer was determined as the lowest concentration of bacteria that led to haemagglutination.
A bacterial concentration of twice the determined haemagglutination titer was kept constant in the haemagglutination inhibition assays. First, a 2-fold dilution series of the inhibitory compounds was performed in 25 μL PBS. Instead, in well 1 only 25 μL PBS was added as a negative control. 25 μL of the bacterial solution and 50 μl of 5% red blood cells were added to reach a final volume of 100 μL.

[5] = tested on: AIEC LF82 bacteria adhesion to T84 intestinal epithelial cells; assay: Adhesion assay on T84 cells, pre-, co- and post-incubation protocols (Example 21.2); format: cell-based, Escherichia coli
Protocol: as §1
T84 were seeded in 48-well plates at a concentration of 1.5×10^5 cells per well and grown for 48 h. AIEC LF82 bacteria were incubated 1 h with each mannoside prior the cell infection (pre-incubation protocol) or they were added simultaneously onto the cells (co-incubation protocol) in complete medium without antibiotics, containing heat inactivated fetal calf serum (FCS). Heptyl-mannose or compound 2 (example 1) were tested at a dose of 100; 10; 1 or 0.1 μM. D-D-mannose was tested at a dose of 10 000; 1 000; 100 or 10 μM and compound 1 (example 2bis) was tested at a concentration of 500; 100; 10 or 1 μM. Cells were infected with AIEC LF82 bacteria at a multiplicity of infection (MOI) of 10 bacteria per cell for 3 h at 37° C. For the post-incubation protocol, mannosides were incubated with cells for 3 h after bacterial infection. A washing step was realized before this post-incubation to eliminate non-adherent bacteria. Monolayers were washed in phosphate-buffered saline (PBS; pH 7.2) and cells were then lysed with 1% Triton X-100 in deionized water. Samples were diluted and plated onto Luria Bertani agar plates to determine the number of colony-forming units (CFU) recovered from the lysed monolayers. Results were expressed as percentages of residual adhesion, considering adhesion level of AIEC LF82 without mannoside treatment as 100%.

[6] = tested on: AIEC LF82 bacteria in colonic loops of CEABAC10 mice expressing human CEACAM6; assay: Adhesion assay in colonic loops of CEABAC10 mice; format: in vivo; details: dose of 0.1 μmol, 4 h incubation
Protocol: E. coli strain LF82 was isolated from a chronic ileal lesion of a patient with Crohn's disease (CD). Bacteria were grown routinely in Luria-Bertani (LB) broth overnight at 37° C.
The transgenic mouse model CEABAC10 expressing the human CEACAM6 protein is available in the UMR Inserm/Université d'Auvergne 1071 led by Professor Arlette Darfeuille-Michaud at Clermont-Ferrand. This model is particularly suitable to reproduce the abnormal colonization by AIEC bacteria through the interaction with CEACAM6 molecules that were observed abnormally expressed in the ileal mucosa of Crohn's disease patients.
Three colonic loops were realized in anesthetized CEABAC10 mice. A volume of 100 μl of a bacterial suspension containing 6×10^6 bacteria/mL with or without inhibitory compound was injected into the loops (here, compound 2, example 1) or heptyl-mannose at a concentration of 100 μM). After an incubation period of 4 h, mice were euthanized and each loop was longitudinally opened, extensively washed and homogenized to numerate adherent LF82 bacteria. Bacterial adhesion was expressed as percentages of residual adhesion (100% corresponds to the adhesion in absence of any compound).

[7] = excluding spiky heat signals (2)

OC[C@H]1O[C@H](OCCCCCCCOCc2cn(C[C@H]3O[C@@H]4O[C@H]5[C@H](O)[C@@H](O)[C@@H](O[C@H]6[C@H](O)[C@@H](O)[C@@H](O[C@H]7[C@H](O)[C@@H](O)[C@@H](O[C@H]8[C@H](O)[C@@H](O)[C@@H](O[C@H]9[C@H](O)[C@@H](O)[C@@H](O[C@H]%10[C@H](O)[C@@H](O)[C@@H](O[C@H]3[C@H](O)[C@H]4O)O[C@@H]%10CO)O[C@@H]9CO)O[C@@H]8CO)O[C@@H]7CO)O[C@@H]6CO)O[C@@H]5CO)nn2)[C@@H](O)[C@@H](O)[C@@H]1O [Compound 1]
Affinity of FimH for the ligand (in words) ([1]; ITC): micromolar range
Kd ([1]; data processed to exclude spiky heat signals (2)): 625 nM
Kd ([1]; data processed to include the whole binding event (1)): 1640 nM
Molar ratio n meas [1, 7]: 0.36
ΔG° [1, 7]: -8.4 kcal/mol
ΔH° [1, 7]: -5.6 kcal/mol
ΔS° [1, 7]: 9.7 cal/mol/deg
Molar ratio n meas ([1]; whole binding event (1)): 0.35
ΔG° ([1]; whole binding event (1)): -7.8 kcal/mol
ΔH° ([1]; whole binding event (1)): -7.2 kcal/mol
ΔS° ([1]; whole binding event (1)): 2.2 cal/mol/deg
MIC, anti-adhesive potency on bladder cell line 5637 (bladder cell line 5637): >400000 nM
Inhibition efficiency at decreased concentration ([2]; 0.1 mM): important drop in the inhibition efficiency
Reduction of the level of infection ([2]; instillation of 1 mM with UTI89): 10 fold
Concentration reaching around 75% of binding inhibition (25% line) [3]: 500 µM
MIC ([4]; UTI89 1.2 10^9 CFU/ml): >200 µM
MIC ([4]; UTI89 1.4 10^8 CFU/ml): 100 µM (≈ 149 µg/mL)
MIC ([4]; UTI89 7 10^7 CFU/ml): 63 µM (≈ 94 µg/mL)
Bacteria adherent to intestinal epithelial cells eliminated ([5]; post-incubation, 500 μM): ≤ 40%
Concentration leading to decreased adhesion levels of at least 50% ([5]; pre-incubation assay): 500 µM

CCCCCCCO[C@H]1O[C@H](CO)[C@@H](O)[C@H](O)[C@@H]1O [heptyl-mannoside, Heptyl α-D-mannoside, reference compound]
Bacterial adhesion in colonic loops compared with no inhibitor [6]: did not decrease significantly
